Assay results as given in patent US9951045B2, “Indazole compounds as 5-HT4 receptor agonists” (SUVEN LIFE SCIENCES LIMITED, priority 2013, dated 2018).
Where a name gives a salt, the structure may show the parent alone.

Tests used:
[1] = Rodent brain penetration study; type: in vivo, Male Wistar rats; settings: male, Wistar, brain and plasma; rat, 3 mg/kg oral (gavage); read-out: Single dose Brain Penetration (Cb/Cp)
Procedure: Male Wistar rats (225±25 grams) were used as experimental animals. Three animals were housed in each cage. Animals were given water and food ad libitum throughout the experiment and maintained on a 12 hours light/dark cycle.
Brain penetration was determined in discrete manner in rats. One day prior to dosing day, male wistar rats (225-250 grams) were acclimatized. After acclimatization the rats were grouped according to their weight. In each group, 3 animals were kept in individual cage and allowed free access to food and water. At each time point (0.50, 1, and 2 hours) n=3 animals were used.
The compounds of formula (I) were suitably preformulated and administered orally at (free base equivalent) 3 mg/kg. Blood samples were removed via, cardiac puncture by using isoflurane anesthesia. The animals were sacrificed to collect brain tissue. Plasma was separated and brain samples were homogenized and stored frozen at −20° C. until analysis. The concentrations of the compounds of formula (I) in plasma and brain were determined using LC-MS/MS method.
The compounds of formula (I) were quantified in plasma and brain homogenate by qualified LC-MS/MS method using suitable extraction technique. The compounds of formula (I) were quantified in the calibration range of 1-500 ng/mL in plasma and brain homogenate. Study samples were analyzed using calibration samples in the batch and quality control samples spread across the batch. Extent of brain-plasma ratio was calculated (Cb/Cp).

[2] = Rodent pharmacokinetic study; type: in vivo, Male wistar rats; settings: male, Wistar, plasma, rat; for bioavailability: 3 mg/kg oral vs 1 mg/kg intravenous
Procedure: Male wistar rats (225=25 grams) were used as experimental animals. Three to five animals were housed in each cage. Two days prior to dosing day, male wistar rats (225-250 grams) were anesthetized with isoflurane for surgical placement of jugular vein catheter. Animals were fasted over night before oral dosing (p.o) and food pellets were allowed 2 hours post dosing, whereas during intravenous dosing food and water were provided as ad libitum. Three rats were dosed with compounds of formula (I) (3 mg/kg) orally and intravenously (1 mg/kg).
At each time point blood was collected through jugular vein and immediately replenish with an equivalent volume of normal saline from freely moving rats. Collected blood was transferred into a labeled eppendr off containing 10 μL of heparin as anticoagulant. Typically blood samples were collected as following time points: Pre dose, 0.08 (only i.v.), 0.25, 0.5, 1, 2, 4, 6, 8, and 24 hours post
dose (n=3). Blood was centrifuged at 4000 rpm for 10 minutes. Plasma was prepared and stored frozen at −20° C. until analysis. The concentrations of the compounds of formula (I) were quantified in plasma by qualified LC-MS/MS method using suitable extraction technique. The compounds of formula (I) were quantified in the calibration range around 2-2000 ng/mL in plasma. Study samples were analyzed using calibration samples in the batch and quality control samples spread across the batch.
Pharmacokinetic parameters Cmax, Tmax, AUCt, T1/2 and Bioavailability were calculated by non-compartmental model using standard non-compartmental model by using WinNonLin 5.0.1 or Phoenix WinNonlin 6.2 version Software package.

[3] = tested on: Scopolamine Induced amnesia; experiment: Radial arm maze; type: in vivo, rats; settings: p.o.
Description: The cognition enhancing properties of compounds of formula (I) of this invention were estimated by using this model. Radial arm maze consists of a central hub of 45 cm diameter. Each arm was of dimension 42.5×15×24 cm. The maze was elevated to a height of 1 m above the ground. The animals were placed on a restricted diet until they reached approximately 85% of their free feeding weight. During this diet restriction period animals were habituated to the novel feed (pellets). Once the rats reached approximately 85% of their free feeding weight rats were habituated to the maze on the 1^St and 2nd day. […] Animals were randomized on day 2. On the subsequent days the treatment was given as per the allotment. Each animal was introduced into the maze individually for a period of 10 minutes. The arms were baited only once and the animal had to learn the rule that repeated arm entries would not be rewarded. The trial ended once the rat had visited 16 arms or 10 minutes were over or all the pellets were eaten. The arm entries were recorded using the software. Once the trial was over the rat was removed and the maze was cleaned using soap water.

Male Wistar rats = experiment: Object recognition task model; type: in vivo; settings: rat, p.o.
Procedure: The cognition enhancing properties of compounds of this invention were estimated by using this model.
Male Wistar rats (230-280 grams) were used as experimental animals. Four animals were housed in each cage. Animals were kept on 20% food deprivation before one day and given water ad libitum throughout the experiment and maintained on a 12 hours light/dark cycle. Also the rats were habituated to individual arenas for 1 hour in the absence of any objects.
One group of 12 rats received vehicle (1 mL/Kg) orally and another set of animals received compound of the formula (I) either orally or i.p., before one hour of the familiar (T1) and choice trial (T2).
The experiment was carried out in a 50×50×50 cm open field made up of acrylic. In the familiarization phase, (T1), the rats were placed individually in the open field for 3 minutes, in which two identical objects (plastic bottles, 12.5 cm height×5.5 cm diameter) covered in yellow masking tape alone (a1 and a2) were positioned in two adjacent corners, 10 cms from the walls. After 24 hours of the (T1) trial for long-term memory test, the same rats were placed in the same arena as they were placed in T1 trial. Choice phase (T2) rats were allowed to explore the open field for 3 minutes in presence of one familiar object (a3) and one novel object (b) (Amber color glass bottle, 12 cm high and 5 cm in diameter). Familiar objects presented similar textures, colors and sizes. During the T1 and T2 trial, explorations of each object (defined as sniffing, licking, chewing or having moving vibrissae whilst directing the nose towards the object at a distance of less than 1 cm) were recorded separately by stopwatch. Sitting on an object was not regarded as exploratory activity, however, it was rarely observed.
T1 is the total time spent exploring the familiar objects (a1+a2).
T2 is the total time spent exploring the familiar object and novel object (a3+b).
The object recognition test was performed as described by Behaviour Brain Research, 31 (1988), 47-59.

[4] = target: T1, recombinant human 5-HT4 receptor (Homo sapiens, UniProt Q13639); experiment: Determination of EC50 values for 5-HT4 receptor (CHO cells, pCRE-Luc reporter); type: cell-based; settings: luciferase reporter, 4 hours incubation, read-out: 5-HT4 receptor agonistic binding in-vitro EC50
T1 construct: expressed in transfected cells
T1 sequence (Q13639 whole entry): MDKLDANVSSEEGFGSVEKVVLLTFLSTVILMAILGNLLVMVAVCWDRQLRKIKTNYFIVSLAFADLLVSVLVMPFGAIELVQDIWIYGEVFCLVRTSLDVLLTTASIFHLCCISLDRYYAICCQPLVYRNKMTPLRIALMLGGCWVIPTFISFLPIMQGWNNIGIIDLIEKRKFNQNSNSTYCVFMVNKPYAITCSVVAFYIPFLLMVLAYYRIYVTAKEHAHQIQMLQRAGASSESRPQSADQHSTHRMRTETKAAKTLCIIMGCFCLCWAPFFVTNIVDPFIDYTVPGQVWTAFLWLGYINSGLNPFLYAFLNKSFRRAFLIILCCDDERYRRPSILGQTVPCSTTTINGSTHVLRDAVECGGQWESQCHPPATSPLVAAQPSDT
Procedure: A stable CHO cell line expressing recombinant human 5-HT4 receptor and pCRE-Luc reporter system was used for cell-based assay. The assay offers a non-radioactive based approach to determine binding of a compound to GPCRs. In this specific assay, the level of intracellular cyclic AMP, which is modulated by activation, or inhibition of the receptor is measured. The recombinant cells harbor luciferase reporter gene under the control of cAMP response element.
The above cells were grown in 96 well clear bottom white plates in Hams F12 medium containing 10% fetal bovine serum (FBS). Prior to the addition of compounds or standard agonist, cells were serum starved overnight. Increasing concentrations of test compounds were added in OptiMEM medium to the cells. The incubation was continued at 37° C. in CO2 incubator for 4 hours. Medium was removed and cells were washed with phosphate buffered saline. The cells were lysed and luciferase activity was measured in a Luminometer. Luminescence units were plotted against the compound concentrations using Graphpad software. EC50 values of the compounds were defined as the concentration required in stimulating the luciferase activity by 50%.

sAPPα = experiment: Estimation of mice brain cortical sAPPα levels (ELISA); type: in vivo; settings: 0.1 and 10 mg/kg s.c., single injection, 60 minutes
Procedure: 1. […] 2. […] 3. […] 4. […] 5. […] Statistical analyses were performed using the Graph Pad Prism (Version 4). […] Values were compared between the different groups by using unpaired t test.

Row | Compound | Kp [1] | AUC(0-t) ([2]; 1 mg/kg intravenous (bolus)) | half-life ([2]; 1 mg/kg intravenous (bolus)) | AUC(0-t) ([2]; 3 mg/kg oral (gavage)) | Cmax ([2]; 3 mg/kg oral (gavage)) | Tmax ([2]; 3 mg/kg oral (gavage)) | half-life ([2]; 3 mg/kg oral (gavage)) | bioavailability [2] | Reversal of Scopolamine Induced amnesia - Effective dose range [3] | Exploration time mean ± S.E.M, Familiar object (Male Wistar rats; 0.3 mg/kg) | Exploration time mean ± S.E.M, Novel object (Male Wistar rats; 0.3 mg/kg) | Inference (Male Wistar rats; 0.3 mg/kg) | EC50 [4] | Exploration time mean ± S.E.M, Familiar object (Male Wistar rats; 1 mg/kg) | Exploration time mean ± S.E.M, Novel object (Male Wistar rats; 1 mg/kg) | Inference (Male Wistar rats; 1 mg/kg) | increase of mice brain cortical sAPPα levels in comparison with control group (sAPPα)
1 | CC(C)n1cc2cccc(C(=O)NCC3CCN(CC(C)(C)O)CC3)c2n1.O=C(O)C(O)C(O)C(=O)O [Example 32, N—[N-(2-hydroxy-2-methylpropyl)piperidin-4-ylmethyl]-2-isopropyl-2H-indazole-7-carboxamide L(+) Tartarate] | 0.52 ± 0.08 | 281 ± 6 ng·h/mL | 72 ± 6 min | 155 ± 3 ng·h/mL | 110 ± 8 ng/mL | 30 min | 48 min | 18% | 0.3 mg/kg, p.o. | 7.79 ± 1.27 s | 17.98 ± 2.41 s | Active | ≤ 1 nM | – | – | – | –
2 | CC(C)n1cc2cccc(C(=O)NCC3CCN(CC4CCOCC4)CC3)c2n1 [Example 1, N—[(N-tetrahydropyran-4-ylmethyl)piperidin-4-ylmethyl]-2-isopropyl-2H-indazole-7-carboxamide fumarate] | 0.98 ± 0.34 | 287 ± 40 ng·h/mL | 66 ± 6 min | 212 ± 46 ng·h/mL | 107 ± 22 ng/mL | 25.2 ± 8.4 min | 90 min | 25 ± 5% | – | – | – | – | ≤ 1 nM | 8.51 ± 1.35 s | 15.51 ± 1.37 s | Active | –
3 | COCCCN1CC2C(CNC(=O)c3cccc4cn(C(C)C)nc34)C2C1.O=C(O)C(=O)O (stereo not shown) [Example 3, N—[N-(3-methoxypropyl)-3-azabicyclo[3.1.0]hexane-6-ylmethyl]-2-isopropyl-2H-indazole-7-carboxamide oxalate] | 0.96 ± 0.12 | 397 ± 28 ng·h/mL | 54 ± 6 min | 560 ± 117 ng·h/mL | 467 ± 37 ng/mL | 19.8 ± 8.4 min | 48 ± 6 min | 47 ± 10% | 3 mg/kg, p.o. | – | – | – | 1.1 to 5 nM | 5.67 ± 1.15 s | 14.26 ± 1.64 s | Active | 25-30%
4 | CCn1cc2cccc(C(=O)NCC3CCN(CC4CCOCC4)CC3)c2n1.O=C(O)/C=C/C(=O)O [Example 2, N—[(N-tetrahydropyran-4-ylmethyl)piperidin-4-ylmethyl]-2-ethyl-2H-indazole-7-carboxamide fumarate] | 1 ± 0.15 | 145 ± 18 ng·h/mL | 102 ± 30 min | 190 ± 43 ng·h/mL | 223 ± 118 ng/mL | 19.8 ± 8.4 min | 66 ± 36 min | 44 ± 10% | 0.3 mg/kg, p.o. | 7.21 ± 1.99 s | 13.10 ± 1.78 s | Active | ≤ 1 nM | – | – | – | –
